The test system of series [1] is DRGs, motor neurons, and Schwann cells. The following applies: 72 h. The procedure: It is contemplated that delivery of immunosuppressive agents function within a favorable therapeutic window. PNs are comprised of three major nervous system cell types, motor neurons, sensory neurons, and Schwann cells. […] FIG. 1B illustrates data regarding the toxicity of tacrolimus to DRGs, motor neurons, and Schwann cells. FIG. 1C illustrates data regarding the toxicity of prednisolone to DRGs, motor neurons, and Schwann cells.
Cells (DRGs, motor neurons, and Schwann cells) were cultured for 72 hours in various concentration of the immunosuppressive drugs and viability was evaluated using the Alamar blue viability assay. ISV's were diluted into media using a maximum of 1% dimethylsulfoxide (DMSO).
FIG. 2B illustrates data regarding the viability of DRGs, motor neurons, and Schwann cells cultured in about 10 μM tracrolimus with differing concentrations of prednisolone.

For series [2], the system named is immune cells. The following applies: cited from earlier work.

On to `C=CC[C@@H]1/C=C(\C)C[C@H](C)C[C@H](OC)[C@H]2O[C@@](O)(C(=O)C(=O)N3CCCC[C@H]3C(=O)O[C@H](/C(C)=C/[C@@H]3CC[C@@H](O)[C@H](OC)C3)[C@H](C)[C@@H](O)CC1=O)[C@H](C)C[C@@H]2OC` [Tacrolimus, tacrolimus], for which, in series [1], the “Measures in vitro tolerated concentrations on PN cells” value was 10 to 25 µM and the “dose tolerated by the cells (up to)” value was in the range of 10 to 25 µM. For the same compound, in series [2], the “effective dose for inhibiting activation and proliferation of immune cells” value is 50 to 100 µM; the “in vitro effective concentration on immune cells” value is 0.5 to 1.0 nM.
For the compound `C[C@]12C=CC(=O)C=C1CC[C@@H]1[C@@H]2[C@@H](O)C[C@@]2(C)[C@H]1CC[C@]2(O)C(=O)CO` [Prednisolone, prednisolone], in series [1], the “Measures in vitro tolerated concentrations on PN cells” value was determined as 200 µM and the “dose tolerated by the cells (up to)” value is “about 200 μM”. Further, in series [2], the “effective dose for inhibiting activation and proliferation of immune cells” value is reported as “greater than 240 μM”; the “in vitro effective concentration on immune cells” value was 240 nM.

(Values after patent US12599561B2, “Localized immunosuppression of allografts for peripheral nerve repair” (UNIVERSITY OF WYOMING, priority 2018, dated 2026).)
